Assay [1] is described as follows: Cytotoxicity against human NCE-G 55T2 cells assessed as inhibition of cell growth incubated for 3 days by WST-8 assay. The conditions noted are these: NCE-G 55T2, 72 h. In general terms: Tetrazolium assays rely on reduction of a dye to a coloured formazan, in cell work by metabolically active cells.
Another assay relates to HCT-116. Description: Cytotoxicity against human HCT-116 cells assessed as inhibition of cell growth incubated for 3 days by WST-8 assay. The settings on record: HCT-116, 72 h.
For assay [2], the target named is T1, Serine/threonine-protein kinase pim-1 (Homo sapiens, UniProt P11309). In words: Inhibition of Pim-1 activity (unknown origin) at 100 uM by Eurofins radiometric assay.
The target in assay [3] is T1, Serine/threonine-protein kinase pim-1. Description: Inhibition of Pim-1 activity (unknown origin) by Eurofins radiometric assay.
Assay [4] shares this target. Description: Inhibition of Pim-1 activity (unknown origin) assessed as residual activity at 100 uM by Eurofins radiometric assay relative to control.
The target is the same in assay [5]. Description: Inhibition of Pim-1 in human NCE-G 55T2 cells assessed as reduction in p21 phosphorylation at Thr145 residue at 0.3 mM incubated for 24 hrs by Western blot analysis. It is filed as cell-based. A general note: Immunoblotting shows a protein as a band on a membrane.

Activity calls are given as the source filed them. No cut-off for these calls is given here.

Consider `O=C1Nc2ccccc2/C1=C\c1ccc(C(=O)O)cc1`, for which the IC50 was determined as 100 µM in assay [1] and 200 µM in the assay with HCT-116.

Turning to `COC(=O)c1ccc(/C=C2/C(=O)Nc3cc(N)ccc32)cc1`, the inhibition result in assay [2] is “Active”.

`Nc1ccc2c(c1)NC(=O)C2Cc1ccc(C(=O)O)cc1` (centres undefined): the inhibition result in assay [2] was “Active”.

With `O=C(O)c1ccc(Cc2coc3cc(O)ccc23)cc1`, in assay [3], half-maximal inhibition (IC50) required 26.4 µM. Besides, the Activity in assay [4] was under 50%.

`Cc1cc(O)cc2occ(Cc3ccc(C(=O)O)cc3)c12`: in assay [4], the Activity was under 50%.

As to `Nc1ccc2c(c1)NC(=O)/C2=C/c1ccc(C(=O)O)cc1`, in assay [3], the half-maximal inhibitory concentration (IC50) came out at 0.6 µM. Further, the inhibition result in assay [5] is “Active”.

What is called IC50 is the concentration needed to halve the response being measured.

(Values after ChEMBL document CHEMBL5385864, “Pose, duplicate, then elaborate: Steps towards increased affinity for inhibitors targeting the specificity surface of the Pim-1 kinase” (Eur J Med Chem, 2023).)
